Where “and” joins values, the source holds several entries; their conditions need not be identical. Equal values may be shown once.

The data set is described as follows: photoluminescence quantum yield (fraction); solvent given as SMILES.

For the compound `Cc1cc(-c2ccc(-n3c4ccccc4c4ccccc43)cc2)nc(-c2ccc(-c3ccccc3)cc2)n1`, the photoluminescence quantum yield by setting is: (in C1CCOC1) 0.62; (in CN(C)C=O) 0.59; (in Cc1ccccc1) 0.52; (in ClC(Cl)Cl) 0.75.

For the setting “in Cc1ccccc1”, `CCC1(CC)c2ccccc2-c2ccc(C#Cc3ccc4ccc5cccc6ccc3c4c56)cc21` displayed a photoluminescence quantum yield of 0.99.

In turn, `C(=C\c1ncc2ccccc2n1)/c1ccc(N(c2ccccc2)c2ccccc2)cc1` yielded a photoluminescence quantum yield (in ClCCl) of 0.61.

In the case of `COc1cccc(-c2[nH]c(=O)n3c2-c2ccccc2C3=O)c1O`, the photoluminescence quantum yield runs as follows: (in CC#N) 0.51; (in CO) 0.02; (in ClCCl) 0.75.

As for `Oc1ccc2ccc(C3(O)C4CC5CC(C4)CC3C5)cc2c1` (stereo unspecified), for the setting “in CC#N”, the photoluminescence quantum yield was 0.3.

In the case of `c1ccc(N(c2ccccc2)c2ccc(-c3ccc4c(c3)C3(c5cc(-c6ccc(N(c7ccccc7)c7ccccc7)cc6)ccc5S4)c4ccccc4-c4ccccc43)cc2)cc1`, the photoluminescence quantum yield (in ClCCl) stood at 0.66.

As to `c1ccc2c(c1)c1ccccc1n2-c1ccc(-c2ccc(-n3c4ccccc4c4ccccc43)nc2-n2c3ccccc3c3ccccc32)nn1`, the photoluminescence quantum yield (in Cc1ccccc1) was 0.35.

Consider `Cc1ccc(-c2nc3sc4ccccc4c3s2)cc1`, for which the photoluminescence quantum yield (in CS(C)=O) was 0.89.

With `F[B-]1(F)OC(c2ccc(C(F)(F)F)cc2)=Cc2ccc3ccccc3[n+]21`, the photoluminescence quantum yield (in ClC(Cl)Cl) was found to be 0.37.

Regarding `CC1=[N+]2C(=C(Oc3ccccc3)c3ccc(C)n3[B-]2(F)F)C=C1c1cc2n(c1)[B-](F)(F)[N+]1=CC=CC1=C2c1c(C)cc(C)cc1C`, the photoluminescence quantum yield was found to be 0.89 (in C1CCCCC1) and 0.16 (in CCOC(C)=O).

For `CCN1\C(=C/C=C/C=C/C2=[N+](CC)c3ccc4ccccc4c3C2(C)C)C(C)(C)c2c1ccc1ccccc21`, the photoluminescence quantum yield (in CS(C)=O) amounted to 0.302.

Turning to `CC(=O)c1ccc(-c2nc3ccc(N(C)C)cc3s2)cc1`, the photoluminescence quantum yield worked out at 0.88 (in C1CCCCC1), 0.88 (in CC#N), 0.041 (in CO) and 0.99 (in ClC(Cl)Cl).

As to `Nc1cccc2cccc(N)c12`, the photoluminescence quantum yield turned out to be 0.1 (in CC#N), 0.09 (in CO), 0.3 (in CS(C)=O) and 0.13 (in Cc1ccccc1).

The compound `C1=C2C3=C(C4=[N+]2[B-]2(Oc5ccccc54)Oc4ccccc4-c4c5c(c1n42)C1CCC5CC1)C1CCC3CC1` (stereo unspecified) returned a photoluminescence quantum yield (in ClCCl) of 0.99.

In turn, `F[B-]1(F)n2c(cc(Br)c2Br)C(c2ccccc2)=C2C=C(Br)C(Br)=[N+]21` had a photoluminescence quantum yield (in ClC(Cl)Cl) of 0.98.

For `CCCCCCCCc1ccc(-n2c3c4ccccc4nnc3c3c2c2nnc4ccccc4c2n3-c2ccc(CCCCCCCC)cc2)cc1`, the photoluminescence quantum yield (in Cc1ccccc1) is 0.

On to `CSc1cc(-c2cc3cc4c5c(c3oc2=O)CCCN5CCC4)oc(=O)c1C#N`, for which the photoluminescence quantum yield is, setting by setting: (in C1CCOC1) 0.9; (in CC#N) 0.29; (in CC(C)=O) 0.43; (in CCOC(C)=O) 0.67; (in CN(C)C=O) 0.26; (in CO) 0.22. Further, the photoluminescence quantum yield is, setting by setting: (in CS(C)=O) 0.29; (in Cc1ccccc1) 0.71; (in ClC(Cl)Cl) 0.53; (in ClCCl) 0.63.

As to `C(#Cc1cccs1)C(C#Cc1cccs1)=Cc1ccc(C=C(C#Cc2cccs2)C#Cc2cccs2)s1`, under “in ClC(Cl)Cl”, the photoluminescence quantum yield was 0.03 and 0.07.

Under “in Cc1ccccc1”, `c1cc2c3c(c1)-c1cccc4cccc(c14)B3c1cccc3cccc-2c13` returned a photoluminescence quantum yield of 0.9.

With `F[B-]1(F)Oc2ccccc2-c2cc(-n3c4ccc(-c5ccccc5)cc4c4cc(-c5ccccc5)ccc43)cc[n+]21`, the photoluminescence quantum yield (in O=P(c1ccccc1)(c1ccccc1)c1ccccc1Oc1ccccc1P(=O)(c1ccccc1)c1ccccc1) was found to be 0.7.

On to `C1=C2c3cc4ccccc4cc3C3=[N+]2[B-]2(Oc4ccccc43)Oc3ccccc3-c3c4cc5ccccc5cc4c1n32` (stereo unspecified), for which the photoluminescence quantum yield (in C1CCOC1) was 0.013.

Take `COc1ccccc1C1=[N+]2C(=C(c3ccc(I)cc3)c3ccc(-c4ccccc4OC)n3[B-]2(F)F)C=C1`: the photoluminescence quantum yield (in ClC(Cl)Cl) was 0.08 and 0.07.

Regarding `COc1cc(/C=C/c2nc3ccccc3s2)c(OC)cc1/C=C/c1ccncc1`, the photoluminescence quantum yield worked out at 0.75 (in C1CCOC1), 0.5 (in CC#N), 0.67 (in CN(C)C=O) and 0.86 (in Cc1ccccc1).

Where the note is “in ClCCl”, `[O-][n+]1c(/C=C/c2ccc(/C=C/c3ccccc3)cc2)nc(N2CCOCC2)c2c1CCCC2` displayed a photoluminescence quantum yield of 0.04.

With `CC1=C2C=CC=[N+]2[B-](F)(F)n2cccc21`, the photoluminescence quantum yield was 0.96 (in CCCCCC), 1 (in CO) and 0.88 (in ClCCl).

In the case of `c1cc2c3c4c5c(cccc5cc3c1)-c1cccn1B4n1cccc1-2`, under “in C1CCOC1”, the photoluminescence quantum yield came out at 0.07.

For the setting “in ClCCl”, `Cc1cc2ccccc2c2c1c1ccccc1n2-c1ccc(C#N)cc1` gave a photoluminescence quantum yield of 0.04.

In turn, `c1ccc(-c2nc(-c3ccccc3)nc(-c3ccc(-n4c5ccccc5c5ccc6c7ccccc7n(-c7ccccc7)c6c54)cc3)n2)cc1` showed a photoluminescence quantum yield (in O=P(c1ccccc1)(c1ccccc1)c1ccc2oc3ccc(P(=O)(c4ccccc4)c4ccccc4)cc3c2c1) of 0.84.

Regarding `C[Si](C)(c1cccc2ccccc12)c1c2ccccc2cc2ccccc12`, the photoluminescence quantum yield was found to be 0.72 (in C1CCCCC1) and 0.62 (in CC#N).

The compound `Cc1nc2c(ccc3ccc(N(C)C)cc32)oc1=O` displayed a photoluminescence quantum yield (in c1ccccc1) of 0.084.

In the case of `CCN1c2ccc(/C=N/Nc3ccccn3)cc2Sc2cc(-c3ccccc3)ccc21`, the photoluminescence quantum yield was 0.26 (in C1CCOC1), 0.37 (in CS(C)=O), 0.17 (in Cc1ccccc1) and 0.27 (in ClCCl).

Compound `CCCCOc1cc2ccccc2c2c1oc1cc3ccccc3cc12` showed a photoluminescence quantum yield (in C1CCOC1) of 0.63.

Turning to `CCN(CC)c1ccc2cc(-c3nc4cc(C(=O)Nc5cccc(OC)c5)ccc4o3)c(=O)oc2c1`, under “in ClCCl”, the photoluminescence quantum yield was 0.21.

`c1ccc(-n2c3ccccc3c3c2c2ccccc2n3-c2ccccc2)cc1` registered a photoluminescence quantum yield (in Cc1ccccc1) of 0.404.

Regarding `O=C1c2ccc(N(c3ccccc3)c3ccccc3)cc2C(=O)c2ccc(N(c3ccccc3)c3ccccc3)cc21`, the photoluminescence quantum yield was found to be 0.2 (in Cc1ccccc1) and 0.5 (in c1ccc2c(c1)c1ccccc1n2-c1ccc(-c2ccc(-n3c4ccccc4c4ccccc43)cc2)cc1).

Take `CCCCCCCCc1ccc(-c2c3cc(-c4cc(CCCCCCCC)c(-c5ccc(-c6sc(/C=C7\SC(SCC)=NC7=O)cc6CCCCCCCC)s5)s4)sc3c(-c3ccc(CCCCCCCC)s3)c3cc(-c4cc(CCCCCCCC)c(-c5ccc(-c6sc(/C=C7\SC(SCC)=NC7=O)cc6CCCCCCCC)s5)s4)sc23)s1`: the photoluminescence quantum yield runs as follows: (in C1CCOC1) 0.078; (in ClC(Cl)Cl) 0.037.

Turning to `COc1cc(-c2nc3sc4ccccc4c3s2)cc(OC)c1OC`, the photoluminescence quantum yield (in CS(C)=O) worked out at 0.6.

`CCN(CC)c1ccc(C(=C(c2ccccc2)c2ccc(B(c3c(C)cc(C)cc3C)c3c(C)cc(C)cc3C)cc2)c2ccc(N(CC)CC)cc2)cc1` displayed a photoluminescence quantum yield (in C1CCOC1) of 0.19.

Compound `CC1CC=C(c2ccc(-c3ccc(C=O)s3)s2)CC1` (stereo unspecified) had a photoluminescence quantum yield (in CCO) of 0.43.

On to `CCCCNC(=O)c1sc(-c2ccc(-c3cc(-c4ccc(C(C)(C)C)cc4)c(C(=O)NCCCC)s3)s2)cc1-c1ccc(C(C)(C)C)cc1`, for which the photoluminescence quantum yield (in ClCCl) is 0.32.

As for `NCCCCCCCCCCCCN1C(=O)c2ccc3c4ccc5c6c(ccc(c7ccc(c2c37)C1=O)c64)C(=O)N(CCCCCCCCCCCCN)C5=O`, the photoluminescence quantum yield (in CN(C)C=O) was 0.83.

In the case of `CCCCC(CC)Cn1c2cc(C#N)ccc2c2ccc(C#Cc3ccc4ccc5ccc(C#Cc6ccc7c8ccc(C#N)cc8n(CC(CC)CCCC)c7c6)c6ccc3c4c56)cc21` (stereo unspecified), the photoluminescence quantum yield (in ClCCl) amounted to 0.51.

Take `F[B-]1(F)OC(c2cccc(Br)c2)=Cc2c3ccccc3c3ccccc3[n+]21`: the photoluminescence quantum yield (in ClC(Cl)Cl) was 0.106.

With `Cc1sc(-c2ccc(-c3nc(-c4ccccc4)c(-c4ccccc4)[nH]3)cc2)c(C)c1C1=C(c2c(C)n(C)c3ccccc23)C(F)(F)C(F)(F)C1(F)F`, the photoluminescence quantum yield (in C1CCOC1) was determined as 0.084.

For the setting “in C1CCOC1”, `CN(C)c1ccc(-c2ccc(-c3cc(N4CCCCC4)c(C#N)c4c3-c3ccccc3CC4)s2)cc1` showed a photoluminescence quantum yield of 0.85.

`F[B-]1(F)n2c(cc3c4ccccc4c4ccccc4c32)-c2ccc3ccccc3[n+]21`: where the note is “in ClCCl”, the photoluminescence quantum yield was determined as 0.9.

In turn, `c1ccc2c3c(ccc2c1)-c1cccc2cc4ccccc4c-3c12` yielded a photoluminescence quantum yield (in CCCCCCC) of 0.00078.

`C(=C\c1ncccn1)/c1ccc(-c2ccc(N(c3ccccc3)c3ccccc3)cc2)cc1` registered a photoluminescence quantum yield (in ClCCl) of 0.6.

In the case of `CCCCCCOc1ccc2oc3c(c2c1)=CC1=C(c2ccccc2C)c2cc4c5cc(OCCCCCC)ccc5oc4n2[B-](F)(F)[N+]=31`, the photoluminescence quantum yield reads like this: (in C1CCCCC1) 0.96; (in CCOC(C)=O) 0.73; (in CO) 0.29.

For the compound `O=c1c2ccccc2[nH]c2ccccc12`, the photoluminescence quantum yield (in CS(C)=O) came out at 0.75.

`COc1ccc(-c2nnc(-c3cc(-n4c5ccccc5c5ccccc54)c(-n4c5ccccc5c5ccccc54)cc3-c3nnc(-c4ccc(OC)cc4)o3)o2)cc1` had a photoluminescence quantum yield (in Cc1ccccc1) of 0.47.

In turn, `COc1ccc2cc(C3=[N+]4C(=Nc5c(-c6ccc7ccccc7c6)cc(-c6ccc7cc(OC)ccc7c6)n5[B-]4(F)F)C(c4ccc5ccccc5c4)=C3)ccc2c1` had a photoluminescence quantum yield (in ClCCl) of 0.29.

For `COc1ccc(C2=Nc3cccc4[n+]3[B-](F)(O2)OC(c2ccc(OC)cc2)=N4)cc1`, the photoluminescence quantum yield (in ClCCl) came to 0.39.

For `CCN(CC)c1ccc2c(-c3ccccc3C(=O)O)c3c([o+]c2c1)/C(=C/c1ccc2c(c1)c1ccccc1n2CC)CCC3`, where the note is “in ClCCl”, the photoluminescence quantum yield was determined as 0.08.

For `O=c1c2cccc3cccc(c32)c2nc3c4ccccc4c4ccccc4c3n12`, the photoluminescence quantum yield (in ClCCl) turned out to be 0.15.

On to `C/C=C/c1cc(OC)cc(OC)c1`, for which the photoluminescence quantum yield (in CC#N) stood at 0.05 and the photoluminescence quantum yield (in CCCCCC) is 0.04.

Source of the values: the Deep4Chem optical property database.
